Measurements as given in patent US6436977B1, “Dosing regimens for lasofoxifene” (Pfizer Inc., priority 1999, dated 2002).
Where two headings read alike, the source gives them in different places.

Assay: Plasma levels of lasofoxifene after a single oral dose in healthy postmenopausal women (LC-MS-MS)
Format: in vivo, human
Conditions: for concentration at 1 h: 1 hour after dosing; for concentration at 2 h: 2 hours after dosing; for concentration at 4 h: 4 hours after dosing; for concentration at 8 h: 8 hours after dosing; for concentration at 12 h: 12 hours after dosing; for concentration at 24 h: 24 hours after dosing; for concentration at 48 h: 48 hours after dosing; for concentration at 72 h: 72 hours after dosing; for concentration at 120 h: 120 hours after dosing; for concentration at 0.5 h: .5 hours after dosing
Protocol: A dose of 0.8 mg of lasofoxifene was administered to 12 healthy, postmenopausal women and blood samples were analyzed periodically as shown in Table 1.
A 1.0 ml sample of human plasma was analyzed for lasofoxifene according to CEDRA's Procedure TM-234 (CEDRA's address). Internal standard used for this procedure was a pentadeuterated lasofoxifene. The plasma sample containing lasofoxifene and the internal standard was extracted with MTBE. Following centrifugation, the organic layer was transferred to another tube and evaporated. An aliquot of the reconstituted sample extract was then injected onto a SCIEX API^III-PLUS LC-MS-MS instrument equipped with a short ion exchange HPLC column. Peak areas of the m/z 414→97.9 daughter ion of lasofoxifene were measured against the peak areas of the mlz 419→97.9 daughter of the internal standard. Quantitation was performed using a 1/x weighted least squares regression line generated from spiked plasma calibration samples.
The procedure of Example 1 was repeated with a dose of 10-mg lasofoxifene administered to 8 healthy postmenopausal women. Plasma levels for lasofoxifene are shown for 672 hours in Table 2.

[1] = female, human, plasma, single oral 10 mg dose, healthy post menopausal women, read-out: Mean plasma concentration, na Lasofoxifene per ml plasma
[2] = female, human, plasma, single oral dose 0.8 mg, healthy post menopausal women, read-out: Mean plasma concentration, ng Lasofoxifene per ml plasma

For Oc1ccc2c(c1)CC[C@H](c1ccccc1)[C@@H]2c1ccc(OCCN2CCCC2)cc1 [lasofoxifene, (−)-cis-6-phenyl-5-[4-(2-pyrrolidin-1-yl-ethoxy)-phenyl]-5,6,7,8-tetrahydronaphthalen-2-ol, D-tartrate], the “duration of therapeutically effective dose (level)” value (doses from 10 to 20 mg, see Table 2) was “up to 30 days”, the concentration at 168 h (female, human, plasma, oral, single dose of 0.8 mg, healthy women, after 168 hours (1 week), read-out: blood level (concentration)) was ~0.3 ng/mL and the concentration at 0 h (female, human, plasma, single oral 10 mg dose, healthy post menopausal women, 0 hours after dosing, read-out: Mean plasma concentration, na Lasofoxifene per ml plasma) was 0 ng/mL. It also gave a concentration at 1 h [1] of 4.42 ng/mL, a concentration at 2 h [1] of 5.64 ng/mL and a concentration at 4 h [1] of 8.46 ng/mL. It also gave a concentration at 8 h [1] of 10.4 ng/mL, a concentration at 12 h [1] of 10.2 ng/mL and a concentration at 24 h [1] of 8.35 ng/mL. The concentration at 48 h [1] was 7.16 ng/mL, the concentration at 72 h [1] was 5.97 ng/mL and the concentration at 120 h [1] was 4.56 ng/mL. For the same compound, the concentration at 168 h (female, human, plasma, single oral 10 mg dose, healthy post menopausal women, 168 hours after dosing, read-out: Mean plasma concentration, na Lasofoxifene per ml plasma) was 3.74 ng/mL, the concentration at 216 h (female, human, plasma, single oral 10 mg dose, healthy post menopausal women, 216 hours after dosing, read-out: Mean plasma concentration, na Lasofoxifene per ml plasma) was 2.88 ng/mL and the concentration at 264 h (female, human, plasma, single oral 10 mg dose, healthy post menopausal women, 264 hours after dosing, read-out: Mean plasma concentration, na Lasofoxifene per ml plasma) was 2.27 ng/mL. It also gave a concentration at 336 h (female, human, plasma, single oral 10 mg dose, healthy post menopausal women, 336 hours after dosing, read-out: Mean plasma concentration, na Lasofoxifene per ml plasma) of 1.6 ng/mL, a concentration at 408 h (female, human, plasma, single oral 10 mg dose, healthy post menopausal women, 408 hours after dosing, read-out: Mean plasma concentration, na Lasofoxifene per ml plasma) of 1.05 ng/mL and a concentration at 480 h (female, human, plasma, single oral 10 mg dose, healthy post menopausal women, 480 hours after dosing, read-out: Mean plasma concentration, na Lasofoxifene per ml plasma) of 0.75 ng/mL. The concentration at 576 h (female, human, plasma, single oral 10 mg dose, healthy post menopausal women, 576 hours after dosing, read-out: Mean plasma concentration, na Lasofoxifene per ml plasma) was 0.5 ng/mL, the concentration at 672 h (female, human, plasma, single oral 10 mg dose, healthy post menopausal women, 672 hours after dosing, read-out: Mean plasma concentration, na Lasofoxifene per ml plasma) was 0.31 ng/mL and the concentration at 0.5 h [1] was 2.33 ng/mL. For the same compound, the concentration at 1 h [2] was 0.32 ng/mL, the concentration at 2 h [2] was 0.37 ng/mL and the concentration at 4 h [2] was 0.46 ng/mL. The concentration at 8 h [2] was 0.72 ng/mL, the concentration at 12 h [2] was 0.73 ng/mL and the concentration at 24 h [2] was 0.64 ng/mL. It also gave a concentration at 48 h [2] of 0.56 ng/mL, a concentration at 72 h [2] of 0.49 ng/mL and a concentration at 120 h [2] of 0.4 ng/mL. For the same compound, the concentration at 168 h (female, human, plasma, single oral dose 0.8 mg, healthy post menopausal women, 168 hours after dosing, read-out: Mean plasma concentration, ng Lasofoxifene per ml plasma) was 0.34 ng/mL, the concentration at 0.5 h [2] was 0.13 ng/mL and the initial blood level (single dose of 0.8 mg, healthy women, within a few hours) was 0.7 ng/mL.
